{"source": "patent US20030068374A1", "about": "“Sustained release preparations of physiologically active compound hardly soluble in water and production process and use of the same” (priority 2000, published 2003)", "origin": "cited, not measured here", "conditions": "in water, 18° C.", "data": [{"smiles": "[O]=[Zn]", "note": "[zinc oxide]", "values": [{"measurement": "solubility", "value": 0.42, "unit": "mg/100 ml"}]}]}
